# In ChEMBL document CHEMBL4316596, “Antimicrobial Peptides with High Proteolytic Resistance for Combating Gram-Negative Bacteria” (J Med Chem, 2019):
# pIC50: −log10 of the molar value. Calls of active or inactive are those of the source. The rule behind the calls is not given here.
# Tests used:
# Escherichia coli [1] = experiment: Bactericidal activity against Escherichia coli ATCC 25922 incubated for 4 hrs followed by culture spread on agar plates and cultured overnight in presence of 12.5% serum albumin; format: functional; settings: ATCC 25922, 4 h, read-out: MBC>99.9
# [2] = Stability of the compound assessed as Tritirachium album proteinase K-mediated compound hydrolysis by measuring compound helicity by CD spectroscopy; format: ADME; settings: parengyodontium album
# Pseudomonas aeruginosa [3] = experiment: Bactericidal activity against Pseudomonas aeruginosa 25349 clinical isolates incubated for 4 hrs followed by culture spread on agar plates and cultured overnight; format: functional; settings: Pseudomonas aeruginosa, 25349, 4 h; read-out: MBC>99.9
# Pseudomonas aeruginosa [4] = experiment: Antimicrobial activity against Pseudomonas aeruginosa ATCC 27853 after 24 hrs by NCCLS-protocol based assay; format: functional; settings: ATCC 27853, 24 h
# Pseudomonas aeruginosa [5] = experiment: Bactericidal activity against Pseudomonas aeruginosa CICC 21625 clinical isolates incubated for 4 hrs followed by culture spread on agar plates and cultured overnight; format: functional; settings: CICC 21625, 4 h, read-out: MBC>99.9
# Pseudomonas aeruginosa [6] = experiment: Antimicrobial activity against Pseudomonas aeruginosa CICC 21625 clinical isolates after 24 hrs by NCCLS-protocol based assay; format: functional; settings: CICC 21625, 24 h
# Escherichia coli [7] = experiment: Bactericidal activity against Escherichia coli ATCC 25922 incubated for 4 hrs followed by culture spread on agar plates and cultured overnight in presence of KCl; format: functional; settings: ATCC 25922, 4 h, read-out: MBC>99.9
# Escherichia coli [8] = experiment: Bactericidal activity against Escherichia coli ATCC 25922 incubated for 4 hrs followed by culture spread on agar plates and cultured overnight in presence of 0.5 mg/ml trypsin; format: functional; settings: ATCC 25922, 4 h, read-out: MBC>99.9
# Escherichia coli [9] = experiment: Induction of cytoplasmic membrane depolarization in Escherichia coli ATCC 25922 at 2 uM up to 5000 secs by DiSC3-5 dye-based fluorescence spectrophotometric method; format: functional, organism-based
# Salmonella typhimurium [10] = experiment: Bactericidal activity against Salmonella typhimurium ATCC 14028 incubated for 4 hrs followed by culture spread on agar plates and cultured overnight; format: functional, Salmonella enterica subsp. enterica serovar Typhimurium; settings: Salmonella enterica, ATCC 14028, 4 h; read-out: MBC>99.9
# Escherichia coli [11] = experiment: Bactericidal activity against Escherichia coli ATCC 25922 incubated for 4 hrs followed by culture spread on agar plates and cultured overnight in presence of ZnCl2; format: functional; settings: ATCC 25922, 4 h, read-out: MBC>99.9
# Escherichia coli [12] = experiment: Bactericidal activity against Escherichia coli ATCC 25922 incubated for 4 hrs followed by culture spread on agar plates and cultured overnight in presence of MgCl2; format: functional; settings: ATCC 25922, 4 h, read-out: MBC>99.9
# [13] = Selectivity ratio of IC50 for HEK293T cells to geometric mean of the peptide MBC for bacteria
# [14] = Hemolytic activity against human RBC at 1 to 128 uM after 1 hr; format: ADME, cell-based, Erythrocyte; settings: red blood cells (erythrocytes), read-out: Activity
# [15] = Selectivity ratio of IC50 for pig IPECJ2 cells to geometric mean of the peptide MBC for bacteria
# [16] = Stability of the compound assessed as Tritirachium album proteinase K-mediated compound hydrolysis after 8 hrs by SDS-PAGE analysis; format: ADME; settings: parengyodontium album
# [17] = Bactericidal activity against Salmonella pullorum C7913 incubated for 4 hrs followed by culture spread on agar plates and cultured overnight; format: functional, Salmonella enterica subsp. enterica serovar Pullorum; settings: Salmonella enterica, C7913, 4 h; read-out: MBC>99.9
# Escherichia coli [18] = experiment: Antimicrobial activity against Escherichia coli UB1005 after 24 hrs by NCCLS-protocol based assay; format: functional; settings: UB1005, 24 h
# Escherichia coli [19] = experiment: Antibacterial activity against Escherichia coli ATCC 25922 infected in ICR mouse assessed as mouse survival at 5 mg/kg, ip dosed at 0.5, 2, 4 and 8 hrs post-infection; format: functional; settings: ATCC 25922, ip
# Escherichia coli [20] = experiment: Bactericidal activity against Escherichia coli ATCC 25922 incubated for 4 hrs followed by culture spread on agar plates and cultured overnight in presence of 2 mg/ml chymotrypsin; format: functional; settings: ATCC 25922, 4 h, read-out: MBC>99.9
# Pseudomonas aeruginosa [21] = experiment: Antimicrobial activity against Pseudomonas aeruginosa PAO1 after 24 hrs by NCCLS-protocol based assay; format: functional; settings: PAO1, 24 h
# Escherichia coli [22] = experiment: Bactericidal activity against Escherichia coli ATCC 25922 incubated for 4 hrs followed by culture spread on agar plates and cultured overnight in presence of 1 mg/ml chymotrypsin; format: functional; settings: ATCC 25922, 4 h, read-out: MBC>99.9
# Escherichia coli [23] = experiment: Induction of outer membrane permeabilization in Escherichia coli ATCC 25922 at 1 uM by NPN-dye based assay relative to control
# Salmonella typhimurium [24] = experiment: Antimicrobial activity against Salmonella typhimurium C7731 after 24 hrs by NCCLS-protocol based assay; format: functional, Salmonella enterica subsp. enterica serovar Typhimurium; settings: Salmonella enterica, C7731, 24 h
# [25] = Stability of the compound assessed as pepsin (unknown origin)-mediated compound hydrolysis after 8 hrs by SDS-PAGE analysis; format: ADME; settings: human
# [26] = Selectivity ratio of HC10 for human RBC to geometric mean of the peptide MBC for bacteria
# Trypsin = Trypsin (Homo sapiens, UniProt P07477+P07478+P35030); experiment: Stability of the compound assessed as trypsin (unknown origin)-mediated compound hydrolysis after 8 hrs by SDS-PAGE analysis; format: ADME, protein assay
# Escherichia coli [27] = experiment: Bactericidal activity against Escherichia coli ATCC 25922 incubated for 4 hrs followed by culture spread on agar plates and cultured overnight in presence of 4 mg/ml chymotrypsin; format: functional; settings: ATCC 25922, 4 h, read-out: MBC>99.9
# HEK-293T = experiment: Cytotoxicity against HEK293T cells assessed as cell death after 18 to 24 hrs by MTT assay; format: cell-based; settings: Homo sapiens
# Escherichia coli [28] = experiment: Bactericidal activity against Escherichia coli ATCC 25922 incubated for 4 hrs followed by culture spread on agar plates and cultured overnight in presence of 1 mg/ml trypsin; format: functional; settings: ATCC 25922, 4 h, read-out: MBC>99.9
# Escherichia coli [29] = experiment: Bactericidal activity against Escherichia coli ATCC 25922 incubated for 4 hrs followed by culture spread on agar plates and cultured overnight in presence of 0.5 mg/ml chymotrypsin; format: functional; settings: ATCC 25922, 4 h, read-out: MBC>99.9
# Escherichia coli [30] = experiment: Antimicrobial activity against Escherichia coli K99 after 24 hrs by NCCLS-protocol based assay; format: functional; settings: K99, 24 h
# Escherichia coli [31] = experiment: Bactericidal activity against Escherichia coli K99 incubated for 4 hrs followed by culture spread on agar plates and cultured overnight; format: functional; settings: K99, 4 h, read-out: MBC>99.9
# Escherichia coli [32] = experiment: Induction of cytoplasmic membrane depolarization in Escherichia coli ATCC 25922 assessed as induction cytoplasmic ONPG release at 2 to 16 uM up to 120 mins by DiSC3-5 dye-based fluorescence spectrophotometric method; format: functional, organism-based
# Escherichia coli [33] = experiment: Bactericidal activity against Escherichia coli ATCC 25922 incubated for 4 hrs followed by culture spread on agar plates and cultured overnight in presence of 25% serum albumin; format: functional; settings: ATCC 25922, 4 h, read-out: MBC>99.9
# Escherichia coli [34] = experiment: Antimicrobial activity against Escherichia coli 078 after 24 hrs by NCCLS-protocol based assay; format: functional; settings: Escherichia coli, 078, 24 h
# Acinetobacter baumannii = experiment: Bactericidal activity against Acinetobacter baumannii incubated for 4 hrs followed by culture spread on agar plates and cultured overnight; format: functional; settings: read-out: MBC>99.9
# Escherichia coli [35] = experiment: Bactericidal activity against Escherichia coli ATCC 25922 incubated for 4 hrs followed by culture spread on agar plates and cultured overnight in presence of 0.125 to 4 mg/ml proteinase K; format: functional, organism-based
substance,measurement,setting,value
H-IRPIIRPIIRPIIRPIIRPIIRPIIRPI-NH2,MBC,Escherichia coli [1],8 µM
same,Stability,[2],Unstable
same,MBC,Pseudomonas aeruginosa [3],32 µM
same,MIC95,Pseudomonas aeruginosa [4],4 µM
same,MBC,Pseudomonas aeruginosa [5],64 µM
same,MIC95,Pseudomonas aeruginosa [6],64 µM
same,MBC,Escherichia coli [7],2 µM
same,MBC,Escherichia coli [8],2 µM
same,Activity,Escherichia coli [9],Active
same,MBC,Salmonella typhimurium [10],2 µM
same,MBC,Escherichia coli [11],2 µM
same,MBC,Escherichia coli [12],2 µM
same,Ratio,[13],65.19
same,"hemolysis at 1 h, up to 128 µM",[14],< 5%
same,Ratio,[15],25.25
same,Stability,[16],Stable
same,MBC,[17],4 µM
same,MIC95,Escherichia coli [18],2 µM
same,survival at 5 mg/kg,Escherichia coli [19],75%
same,MBC,Escherichia coli [20],2 µM
same,MIC95,Pseudomonas aeruginosa [21],4 µM
same,MBC,Escherichia coli [22],2 µM
same,Activity,Escherichia coli [23],>50%
same,MIC95,Salmonella typhimurium [24],1 µM
same,Stability,[25],Stable
same,Ratio,[26],51.5
same,Stability,Trypsin,Stable
same,MBC,Escherichia coli [27],2 µM
same,pIC50,HEK-293T,3.49
same,MBC,Escherichia coli [28],2 µM
same,MBC,Escherichia coli [29],2 µM
same,MIC95,Escherichia coli [30],1 µM
same,MBC,Escherichia coli [31],2 µM
same,Activity,Escherichia coli [32],Active
same,MBC,Escherichia coli [33],8 µM
same,MIC95,Escherichia coli [34],1 µM
same,MBC,Acinetobacter baumannii,1 µM
same,Activity,Escherichia coli [35],Active
